Source: patent publication US9757368B2, “Anti-inflammatory agents” (Resverlogix Corp., priority 2009, dated 2017)

test system: hIL-6 mRNA; assay: Quantification of hIL-6 mRNA in LPS-stimulated U937 macrophages (real-time PCR); assay type: cell-based, human; design: key: Active: an active compound is one that causes a ≧20% inhibition in IL-6 mRNA at a concentration less than or equal to 10 μM; conditions: U937 cells differentiated with PMA, 1 h pretreatment, LPS 1 μg/mL, 3 h; IL-6 mRNA normalised to hCyclophilin; compound ≤10 μM
Procedure: In this example, hIL-6 mRNA in tissue culture cells was quantitated to measure the transcriptional inhibition of hIL-6 when treated with a compound of the invention.
A human leukemic monocytic lymphoma cell line (U937) was plated (3.2×10^5 cells per well) in a 96-well plate in 100 μL RPMI 1640+10% FBS, and differentiated into macrophages with PMA (60 ng/mL) for 3 days prior to the addition of the compound of interest. The cells were pretreated for 1 h with the test compound in DMSO prior to stimulation with lipopolysaccharide from Escherichia coli at 1 μg/mL. The cells were incubated for 3 h before harvest. At the time of harvest, cells were rinsed in 200 μL PBS. Cell lysis solution (70 μL) was added the cells for 10 min, and mRNA was then prepared using the “mRNA Catcher PLUS plate” (Invitrogen), according to the protocol supplied.
(§1) The eluted mRNA isolated was then used in a one-step quantitative real-time PCR reaction, using components of the UltraSense kit together with Applied Biosystems primer-probe mixes. 10 μL of template was amplified with 1.75 μL of IL-6 primer-probe, and 1 μL of hCyclophilin primer probe, and the reaction was carried out in multiplex. Real-time PCR data was analyzed, normalizing the Ct values for hIL-6 to hCyclophilin, prior to determining the fold induction of each unknown sample, relative to the control.

Compound	Inhibition of IL-6 expression
COc1cc(OCCN(C)C)c2c(=O)[nH]c(-c3cc(C)c(O)c(C)c3)nc2c1 [Example 1, 5-(2-dimethylamino-ethoxy)-2(4-hydroxy-3,5-dimethylphenyl)-7-methoxy-3H-quinazolin-4-one]	Active
COCCOc1cc(OC)cc2nc(-c3cc(C)c(O)c(C)c3)[nH]c(=O)c12 [Example 2, 2-(4-hydroxy-3,5-dimethyl-phenyl)-7-methoxy-5-(2-methoxy-ethoxy)-3H-quinazolin-4-one]	Active
COc1cc(OCCN)cc2nc(-c3cc(C)c(O)c(C)c3)[nH]c(=O)c12 [Example 3, 7-(2-amino-ethoxy)-2-(4-hydroxy-3,5-dimethyl-phenyl)-5-methoxy-3H-quinazolin-4-one]	Active
COCCOc1cc(OC)c2c(=O)[nH]c(-c3cc(C)c(O)c(C)c3)nc2c1 [Example 4, 2-(4-hydroxy-3,5-dimethyl-phenyl)-5-methoxy-7-(2-methoxy-ethoxy)-3H-quinazolin-4-one]	Active
COc1cc(OCCOCc2ccccc2)cc2nc(-c3cc(C)c(O)c(C)c3)[nH]c(=O)c12 [Example 5, 7-(2-benzyloxy-ethoxy)-2-(4-hydroxy-3,5-dimethyl-phenyl)-5-methoxy-3H-quinazolin-4-one]	Active
COc1cc(OCCOCc2cccnc2)cc2nc(-c3cc(C)c(O)c(C)c3)[nH]c(=O)c12 [Example 6, 2-(4-hydroxy-3,5-dimethylphenyl)-5-methoxy-7-[2-(pyridin-3-ylmethoxy)ethoxy]-3H-quinazolin-4-one]	Active
Cc1cc(-c2nc3ccc(Nc4ccncc4)cc3c(=O)[nH]2)cc(C)c1O [Example 8, 2-(4-hydroxy-3,5-dimethyl-phenyl)-6-(pyridin-4-ylamino)-3H-quinazolin-4-one]	Active
Cc1cc(-c2nc3ccc(CNS(C)(=O)=O)cc3c(=O)[nH]2)cc(C)c1O [Example 11, N-((2-(4-hydroxy-3,5-dimethylphenyl)-4-oxo-3,4-dihydroquinazolin-6-yl)methyl)methanesulfonamide]	Active
Cc1cc(-c2nc3ccc(N4CCOCC4)cc3c(=O)[nH]2)cc(C)c1OCCO [Example 12, 2-(4-(2-hydroxyethoxy)-3,5-dimethylphenyl)-6-morpholinoquinazolin-4(3H)-one]	Active
COc1cc(OC)c2c(=O)[nH]c(-c3cc(C)c(OCCOCc4ccccc4)c(C)c3)nc2n1 [Example 13, 2-(4-(2-(benzyloxy)ethoxy)-3,5-dimethylphenyl)-5,7-dimethoxypyrido[2,3-d]pyrimidin-4(3H)-one]	Active
Cc1cc(C)c2c(=O)[nH]c(-c3cc(C)c(OCCO)c(C)c3)nc2n1 [Example 14, 2-(4-(2-hydroxyethoxy)-3,5-dimethylphenyl)-5,7-dimethylpyrido[2,3-d]pyrimidin-4(3H)-one]	Active
Cc1cc(-c2nc3cc(OC(C)C)cc(OC(C)C)c3c(=O)[nH]2)cc(C)c1OCCO [Example 16, 2-[4-(2-hydroxy-ethoxy)-3,5-dimethyl-phenyl]-5,7-diisopropoxy-3H-quinazolin-4-one]	Active
COc1cc2nc(-c3cc(C)c(OCCO)c(C)c3)[nH]c(=O)c2c(OC)c1CN1CCOCC1.Cl [Example 19, 2-[4-(2-hydroxy-ethoxy)-3,5-dimethylphenyl]-5,7-dimethoxy-6-morpholin-4-ylmethyl-3H-quinazolin-4-one hydrochloride]	Active
COc1cc(OCCOCc2ccccc2)cc2nc(-c3ccc4oc(CO)cc4c3)[nH]c(=O)c12 [Example 24, 7-(2-benzyloxy-ethoxy)-2-(2-hydroxymethyl-benzofuran-5-yl)-5-methoxy-3H-quinazolin-4-one]	Active
COc1cc(OC)c2c(=O)[nH]c(-c3cc(C)c(OCC(=O)NCc4ccccc4)c(C)c3)nc2c1 [Example 27, N-benzyl-2-[4-(5,7-dimethoxy-4-oxo-3,4-dihydroquinazolin-2-yl)-2,6-dimethylphenoxy]acetamide]	Active
COc1cc(OC)c2c(=O)[nH]c(-c3cc(C)c(OCCNC=O)c(C)c3)cc2c1 [Example 41, N-{2-[4-(6,8-dimethoxy-1-oxo-1,2-dihydro-isoquinolin-3-yl)-2,6-dimethyl-phenoxy]-ethyl}-formamide]	Active
COc1cc(OC)c2c(=O)[nH]c(-c3cc(C)c(OCCNS(=O)(=O)C(C)C)c(C)c3)nc2c1 [Example 43, N-(2-(4-(5,7-dimethoxy-4-oxo-3,4-dihydroquinazolin-2-yl)-2,6-dimethylphenoxy)ethyl)propane-2-sulfonamide]	Active
COc1cc(OC)c2c(=O)[nH]c(-c3ccc(OCCNC(C)=O)c(C)c3)nc2c1 [Example 45, N-(2-(4-(5,7-dimethoxy-4-oxo-3,4-dihydroquinazolin-2-yl)-2-methylphenoxy)ethyl)acetamide]	Active
COc1cc(OC)c2c(=O)[nH]c(-c3cc(C)c(OCCN(C)C)c(C)c3)nc2c1 [Example 46, 2-(4-(2-(dimethylamino)ethoxy)-3,5-dimethylphenyl)-5,7-dimethoxyquinazolin-4(3H)-one]	Active
COc1cc(OC)c2c(=O)[nH]c(-c3cc(C)c(OCCNC=O)c(C)c3)nc2c1 [Example 48, N-(2-(4-(5,7-dimethoxy-4-oxo-3,4-dihydroquinazolin-2-yl)-2,6-dimethylphenoxy)ethyl)formamide]	Active
COc1cc(OC)c2c(=O)[nH]c(-c3cc(C)c(OCCN(C)C=O)c(C)c3)nc2c1 [Example 49, N-(2-(4-(5,7-dimethoxy-4-oxo-3,4-dihydroquinazolin-2-yl)-2,6-dimethylphenoxy)ethyl)-N-methylformamide]	Active
COc1cc(OC)c2c(=O)[nH]c(-c3cc(C)c(OCCNS(=O)(=O)N(C)C)c(C)c3)nc2c1 [Example 50, N-(2-(4-(5,7-dimethoxy-4-oxo-3,4-dihydroquinazolin-2-yl)-2,6-dimethylphenoxy)ethyl)dimethylamino-N-sulfonamide]	Active
COc1cc(OC)c2c(=O)[nH]c(-c3cc(C)c(OCCNc4cc(C)on4)c(C)c3)nc2c1 [Example 52, 2-(3,5-dimethyl-4-(2-(5-methylisoxazol-3-ylamino)ethoxy)phenyl)-5,7-dimethoxyquinazolin-4(3H)-one]	Active
COc1cc(OC)c2c(=O)[nH]c(-c3cc(C)c(OCCNc4ncccn4)c(C)c3)nc2c1 [Example 53, 2-(3,5-dimethyl-4-(2-(pyrimidin-2-ylamino)ethoxy)phenyl)-5,7-dimethoxyquinazolin-4(3H)-one]	Active
COc1cc(OC)c2c(=O)[nH]c(-c3cc(C)c(OCCNc4ccon4)c(C)c3)nc2c1 [Example 54, 2-(4-(2-(isoxazol-3-ylamino)ethoxy)-3,5-dimethylphenyl)-5,7-dimethoxyquinazolin-4(3H)-one]	Active
COc1cc(OC)c2c(=O)[nH]c(-c3cc(C)c(OCCNc4nc(OC)cc(OC)n4)c(C)c3)nc2c1 [Example 55, 2-(4-(2-(4,6-dimethoxypyrimidin-2-ylamino)ethoxy)-3,5-dimethylphenyl)-5,7-dimethoxyquinazolin-4(3H)-one]	Active
COc1cc(OC)c2c(=O)[nH]c(-c3cc(OC)c(CCCO)c(OC)c3)nc2c1 [Example 56, 2-[4-(3-hydroxy-propyl)-3,5-dimethoxyphenyl]-5,7-dimethoxy-3H-quinazolin-4-one]	Active
COc1cc(OC)c2c(=O)[nH]c(-c3ccc(CCCO)c(OC)c3)nc2c1 [Example 57, 2-[4-(3-hydroxy-propyl)-3-methoxy-phenyl]-5,7-dimethoxy-3H-quinazolin-4-one]	Active

test system: hVCAM-1 mRNA; assay: Quantification of hVCAM-1 mRNA in TNF-α-stimulated HUV-EC-C cells (real-time PCR); assay type: cell-based, human; design: key: Active: an active compound is one that causes a ≧20% inhibition in VCAM-1 mRNA at a concentration less than or equal to 10 μM; conditions: 1 h pretreatment, TNF-α 10 ng/mL, 24 h, VCAM-1 mRNA normalised to hCyclophilin, compound ≤10 μM
Procedure: In this example, hVCAM-1 mRNA in tissue culture cells was quantitated to measure the transcriptional inhibition of hVCAM when treated with a compound of the invention.
A human umbilical vein endothelial cell line (HUV-EC-C) was plated in a 96-well plate (5.0×10^3 cells/well) in 100 μL EGM complete media and incubated for 24 h prior to the addition of the compound of interest. The cells were pretreated for 1 h with the test compound in DMSO prior to stimulation with tumor necrosis factor-α (10 ng/mL). The cells were incubated for an additional 24 h before harvest. At time of harvest, the cells were rinsed in 200 μL PBS, and cell lysis solution (70 μL) was then added the cells for 10 min. mRNA was then prepared using the “mRNA Catcher PLUS plate” (Invitrogen), according to the protocol supplied.
as §1, with “mRNA” for “mRNA isolated”, “hVCAM-1” for “IL-6”, “hVCAM-1” for “hIL-6”

Compound	Inhibition of VCAM-1 expression
COc1cc(OCCN)cc2nc(-c3cc(C)c(O)c(C)c3)[nH]c(=O)c12 [Example 3, 7-(2-amino-ethoxy)-2-(4-hydroxy-3,5-dimethyl-phenyl)-5-methoxy-3H-quinazolin-4-one]	Active
COCCOc1cc(OC)c2c(=O)[nH]c(-c3cc(C)c(O)c(C)c3)nc2c1 [Example 4, 2-(4-hydroxy-3,5-dimethyl-phenyl)-5-methoxy-7-(2-methoxy-ethoxy)-3H-quinazolin-4-one]	Active
COc1cc(OCCOCc2ccccc2)cc2nc(-c3cc(C)c(O)c(C)c3)[nH]c(=O)c12 [Example 5, 7-(2-benzyloxy-ethoxy)-2-(4-hydroxy-3,5-dimethyl-phenyl)-5-methoxy-3H-quinazolin-4-one]	Active
